Reference: US5631382A, “Fulgimide compound” (Tokuyama Corporation, priority 1994, dated 1997)

Key:
Assay type in all cases: physicochemical
[1] = Developed color of polymer plate under xenon light (color density, maximum absorption wavelength); details: for Color density: 0.04 parts in polymer plate; for λ max: state of developing color, polymer plate
Excerpt: (§1) 0.04 Parts of fulgimide compounds shown in Table 3, 70 parts of tetraethyleneglycol dimethacrylate, 15 parts of triethyleneglycol dimethacrylate, 10 parts of glycidyl methacrylate, 5 parts of 2-hydroethylmethacrylate and 1 part of perbutyl ND as a polymerization catalyst, were sufficiently mixed together until they were completely dissolved. The mixture solution was poured into a mold constituted by a glass plate and a gasket of an ethylene/vinyl acetate copolymer, and its temperature was elevated in an air oven from 35° C. to 90° C. over a period of 20 hours to effect the polymerization. After the polymerization, the polymer was taken out from the glass mold.
(§2) The obtained polymer plate was irradiated with xenon light by using a Xenon Long-Life Fade Meter FAL-25AX-HC (output: 2.5 KW, source of light: xenon long-life arc lamp) manufactured by Suga Shikenki Co., in order to measure a maximum absorption wavelength in a state of developing color. The initial color tone was observed by eyes, and YI of the samples was measured by using a color-difference meter (Model SM-4) manufactured by Suga Shikenki Co. The wear life (T 1/2) was also measured in compliance with JIS L0843 and JIS B7754. T 1/2 is defined to be the time until the color density decreases down to one-half the initial value when the polymer plate is irradiated with light by using the fade meter.
(§3) For the purpose of comparison, the fulgimide compounds represented by the following formulas (A) to (I) were also used to prepare polymer plates to measure their properties in the same procedure as described above. [drawing 113]

[2] = Initial color of polymer plate (visual observation, YI by color-difference meter); details: for Initial color, visually observed: before irradiation; for Initial color, YI: color-difference meter SM-4
Excerpt: as §1, §2, §3

[3] = Wear life (T 1/2) of polymer plate in xenon fade meter, JIS L0843 and JIS B7754; details: time until color density decreases to one-half the initial value
Excerpt: as §1, §2, §3

| Color density [1] | λ max [1] [nm] | Initial color, visually observed [2] | Initial color, YI [2] | T1/2 [3] [h] | Compound |
| --- | --- | --- | --- | --- | --- |
| 0.73 | 630 | yellow | 18.89 | 80 | COc1ccc(-c2cc3c(n2C)C2(C4CC5CC(C4)CC2C5)C2C(=O)N(CC#N)C(=O)C2=C3C)cc1 (stereo not shown) [I, reference compound] |
| 1.12 | 620 | pale yellow | 4.99 | 140 | O=C1C2=C(C3CC3)c3c(sc4c3CCCC4)C3(C4CC5CC(C4)CC3C5)C2C(=O)N1S(=O)(=O)c1ccccc1 (stereo not shown) [Compound 10] |
| 0.65 | 615 | colorless | 1.85 | 400 | N#CN1C(=O)C2=C(C3CC3)c3ccsc3C3(C4CC5CC(C4)CC3C5)C2C1=O (stereo not shown) [Compound 1, N-Cyano-4-cyclopropyl-6,7-dihydrospirobenzothiophenedicarboxyimide-7,2'-tricyclo[3.3.1.1^3,7]decane] |
| 0.75 | 603 | pale yellow | 4.89 | 100 | Cn1c(Cl)cc2c1C1(C3CCCC1(Cl)CCC3)C1C(=O)N(C(F)(F)F)C(=O)C1=C2c1ccccc1 (stereo not shown) [Compound 14] |
| 1.43 | 562 | colorless | 2.15 | 140 | CC(=O)N1C(=O)C2=C(C3CC3)c3cc(C)sc3C3(C4CC5CC(C4)CC3C5)C2C1=O (stereo not shown) [Compound 4, N-Acetyl-4-cyclopropyl-6,7-dihydro-2-methylspirobenzothiophenedicarboxyimide-7,2'-tricyclo[3.3.1.1^3,7]decane] |
| 1.20 | 560 | colorless | 2.01 | 140 | CC(=O)N1C(=O)C2=C(C3CC3)c3ccsc3C3(C4CC5CC(C4)CC3C5)C2C1=O (stereo not shown) [Compound 2, N-Acetyl-4-cyclopropyl-6,7-dihydrospirobenzothiophenedicarboxyimide-7,2'-tricyclo[3.3.1.1^3,7]decane] |
| 0.85 | 520 | colorless | 2.95 | 110 | CCOC(=O)N1C(=O)C2=C(C)c3c(sc4ccccc34)C3(C4CCCC3(OC)CCC4)C2C1=O (stereo not shown) [Compound 15] |
| 0.95 | 601 | pale yellow | 4.85 | 110 | CC(C)C1=C2C(=O)N(S(C)(=O)=O)C(=O)C2C2(c3c1ccn3C)C1CC3CC2CC(Cl)(C3)C1 (stereo not shown) [Compound 6, 5'-Chloro-6,7-dihydro-N-methyl-N'-methylsulfonyl-4-isopropylspiroindoledicarboxyimide-7,2'-tricyclo[3.3.1.1^3,7]decane] |
| 0.95 | 548 | pale yellow | 4.85 | 100 | CCOC12CCC(CC1)C21c2sc3ccccc3c2C(CC)=C2C(=O)N(S(=O)(=O)CC)C(=O)C21 (stereo not shown) [Compound 20] |
| 1.11 | 613 | colorless | 2.95 | 250 | N#CN1C(=O)C2=C(c3ccoc3)c3ccoc3C3(C4CCC3CC4)C2C1=O (stereo not shown) [Compound 18] |
| 0.88 | 610 | yellow | 19.56 | 85 | CCN1C(=O)C2=C(C)c3cc(-c4ccc(OC)cc4)n(C)c3C3(C4CC5CC(C4)CC3C5)C2C1=O (stereo not shown) [G, reference compound] |
